Experimental data: PMC10967822, “Antimicrobial Indole-3-Carboxamido-Polyamine Conjugates Target Bacterial Membranes and Are Antibiotic Potentiators” (Biomolecules, 2024)
≈ marks a conversion by molar mass, not a printed value. Where “and” joins values, the source holds several entries; their conditions need not be identical. Equal entries are not always repeated.

Key:
S. aureus ATCC 25923 [1] = assay: MIC, broth dilution, S. aureus; assay type: cell-based, Staphylococcus aureus; details: Staphylococcus aureus, ATCC25923; S. aureus ATCC 25923, 18 h; read-out: MIC Sa
MRSA ATCC 43300 = assay: MIC, broth microdilution (CO-ADD), MRSA; assay type: cell-based, methicillin-resistant S. aureus; details: Staphylococcus aureus; MRSA ATCC 43300; top dose 32 µg/mL; read-out: MIC MRSA
P. aeruginosa ATCC 27853 [2] = assay: MIC, broth dilution, P. aeruginosa; assay type: cell-based, Pseudomonas aeruginosa; details: Pseudomonas aeruginosa, ATCC27853; P. aeruginosa ATCC 27853, 18 h; read-out: MIC Pa
E. coli ATCC 25922 [3] = assay: MIC, broth dilution, E. coli; assay type: cell-based, Escherichia coli; details: Escherichia coli, ATCC25922; E. coli ATCC 25922, 18 h
A. baumannii ATCC 19606 = assay: MIC, broth microdilution (CO-ADD), A. baumannii; assay type: cell-based, Acinetobacter baumannii; details: Acinetobacter baumannii, ATCC19606, top dose 32 µg/mL
C. albicans ATCC 90028 = assay: Antifungal MIC (CO-ADD), C. albicans; assay type: cell-based; details: Candida albicans, ATCC90028, top dose 32 µg/mL
How it was run: (§1)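 MIC for C. neoformans determined by OD570–600 following a further 3 h with resazurin (0.006% final), whereas C. albicans was read directly at OD530. Both grown static in YNB broth at 2.5 × 10^3 CFU/mL final inoculum, 35 °C for 36 h, from colonies cultured on YPD agar 3 days at 30 °C.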

[4] = tested on: C. neoformans ATCC 208821; assay: Antifungal MIC (CO-ADD), C. neoformans; assay type: cell-based; details: Cryptococcus neoformans, ATCC208821, top dose 32 µg/mL
How it was run: as §1

P. aeruginosa ATCC 27853 [5] = assay: Doxycycline potentiation against P. aeruginosa; assay type: cell-based, Pseudomonas aeruginosa; details: doxycycline at 2 µg/mL (4.5 µM); for Dox/Pa fold-change (intrinsic MIC / combination MIC): P. aeruginosa ATCC 27853; for Dox/Pa: concentration required to restore doxycycline activity (combination MIC): P. aeruginosa ATCC 27853, mean n = 3
Source text: (§2) These measurements were independently repeated in triplicate.

E. coli ATCC 25922 [6] = assay: Erythromycin potentiation against E. coli; assay type: cell-based, Escherichia coli; details: erythromycin at 2 µg/mL (2.7 µM); for Erythro/Ec fold-change (intrinsic MIC / combination MIC): E. coli; for Erythro/Ec: concentration required to restore erythromycin activity (combination MIC): mean n = 3
Source text: as §2

[7] = Cytotoxicity assay (resazurin); assay type: cell-based; details: human, HEK293 cells, mean n = 2
human red blood cells = assay: Hemolytic assay; assay type: cell-based; details: 10% hemolytic activity, mean n = 2
How it was run: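 Compounds were applied to saline-washed human red blood cells at 0.5 × 10^8 cells/mL, 37 °C, 1 h. Lysis was measured by supernatant absorbance at 405 nm, and concentrations giving 10% and 50% haemolysis were obtained by variable-slope curve fitting.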

[8] = tested on: K. pneumoniae ATCC 700603; assay: MIC, broth microdilution (CO-ADD), K. pneumoniae; details: top dose 32 µg/mL
S. aureus ATCC 25923 [9] = assay: Real-time growth curves, S. aureus; assay type: cell-based, Staphylococcus aureus; details: S. aureus ATCC 25923, real-time growth
Method: The solutions of the compound at the concentrations of 2, 4, and 16 µg/mL were tested each in triplicate against S. aureus ATCC 25923. Typically, in a 96-well plate were placed 10 µL of 40, 80, and 320 µg/mL stock solutions of compound, as well as 190 µL of 5 × 10^5 CFU/mL of the selected bacterial suspension in brain heart infusion (BHI) broth. Positive controls containing only 200 µL of 5 × 10^5 CFU/mL of the bacterial suspension in BHI and negative controls containing only 200 µL of BHI broth were added. The plate was incubated at 37 °C in a TECAN Spark Reader (Roche Diagnostic, Meylan, France) and the real-time bacterial growth was followed by OD590 nm measurements every 20 min for 18 h.

P. aeruginosa PAO1 [10] = assay: Real-time growth curves, P. aeruginosa; assay type: cell-based, Pseudomonas aeruginosa
S. aureus ATCC 25923 [11] = assay: ATP efflux (membrane disruption), S. aureus; assay type: cell-based, Staphylococcus aureus; details: S. aureus ATCC 25923, single dose 100 µg/mL, relative to squalamine
Method: (§3) A solution of the compound was prepared in twice-distilled water at a fixed concentration of 100 μg/mL. The different Gram-positive suspensions were prepared in MH II broth and were incubated at 37 °C. Then, 90 µL of each bacterial suspension was added to 10 µL of the compound solution and shaken for 20 s in the incubator at 37 °C. Subsequently, 50 µL of Luceferin–Luciferase reagent (Yelen, Marseille, France) was added to the mixture, and the luminescent signal was quantified with an Infinite M200 microplate reader (Tecan, Männedorf, Switzerland) for 6 readings spaced 30 s apart. The ATP concentration was quantified by internal sample addition. Squalamine (100 µg/mL) was used as the positive control to quantify the maximum level of ATP efflux and water as the negative control. This assay was performed in three independent experiments.

MRSA = assay: ATP efflux (membrane disruption), MRSA; assay type: cell-based, methicillin-resistant S. aureus; details: single dose 100 µg/mL, relative to squalamine
Method: as §3

P. aeruginosa PAO1 [12] = assay: Nitrocefin hydrolysis assay (outer membrane permeabilization); assay type: cell-based, Pseudomonas aeruginosa; details: P. aeruginosa PAO1, top dose 128 µg/mL
Method: Outer membrane permeabilization was measured using nitrocefin as a chromogenic substrate of periplasmic β-lactamase. A total of 10 milliliters of MH broth were inoculated with 0.1 mL of an overnight culture of PAO1 bacteria and grown at 37 °C until the OD600 reached 0.5. The remaining steps were performed at room temperature. The cells were recovered by centrifugation (4000 rpm for 20 min) and washed once in 20 mM potassium phosphate buffer (pH 7.2) containing MgCl2 (1 mM). After a second centrifugation, the pellet was resuspended and adjusted to OD600 of 0.5. Then, 50 µL of the desired compound was added to 100 µL of the cell suspension to obtain a final concentration varying from 3.9 µM to 250 µM. A total of 50 microliters of nitrocefin was then added to obtain a final concentration of 50 µg/mL. Nitrocefin hydrolysis was monitored spectrophotometrically by measuring the increase in absorbance at 490 nm. The assays were performed in 96-well plates using a M200 Pro Tecan (Tecan, Männedorf, Switzerland) spectrophotometer.

P. aeruginosa ATCC 27853 [13] = details: cited from earlier work
P. aeruginosa ATCC 27853 [14] = details: doxycycline potentiation; cited from earlier work

MIC (S. aureus ATCC 25923 [1])	MIC (MRSA ATCC 43300)	MIC (P. aeruginosa ATCC 27853 [2])	MIC (E. coli ATCC 25922 [3])	MIC (A. baumannii ATCC 19606)	MIC (C. albicans ATCC 90028)	MIC [4]	Dox/Pa fold-change (intrinsic MIC / combination MIC) (P. aeruginosa ATCC 27853 [5])	Dox/Pa: concentration required to restore doxycycline activity (combination MIC) (P. aeruginosa ATCC 27853 [5])	Erythro/Ec fold-change (intrinsic MIC / combination MIC) (E. coli ATCC 25922 [6])	Erythro/Ec: concentration required to restore erythromycin activity (combination MIC) (E. coli ATCC 25922 [6])	MIC Kp [8]	Compound	IC50 at 20 h [7]	Hemolysis HC10 (human red blood cells)	further results
30.2 µM (≈ 18.1 µg/mL)	≤ 0.3 µM	60.3 µM (≈ 36.2 µg/mL)	30.2 µM (≈ 18.1 µg/mL)	> 39 µM	4.83 µM (≈ 2.9 µg/mL)	≤ 0.3 µM	4 fold	15.1 µM	2 fold	15.1 µM	>39 µM	Cc1cccc2c(C(=O)NCCCNCCCCCCCCCCNCCCNC(=O)c3c[nH]c4c(C)cccc34)c[nH]c12 [Compound 18e]	> 39 µM	>39 µM	–
117 µM	≤ 0.29 µM	117 µM	117 µM	9.33 µM	≤ 0.29 µM	≤ 0.29 µM	4 fold	29.2 µM	1 fold	116.7 µM	>37 µM	Cc1cccc2c(C(=O)NCCCNCCCCCCCCCCCCNCCCNC(=O)c3c[nH]c4c(C)cccc34)c[nH]c12.O=C(O)C(F)(F)F.O=C(O)C(F)(F)F [Compound 18f]	> 37 µM	>37 µM	–
–	–	–	–	–	–	–	–	–	–	–	–	O=C(Cc1c[nH]c2ccc(Br)cc12)NCCCNCCCCCCCNCCCNC(=O)Cc1c[nH]c2ccc(Br)cc12 [Compound 19, reference compound]	–	–	Concentration at which bacterial growth resumed after 2 h (S. aureus ATCC 25923 [9]): 8.5 μM and 8 μg/mL; Concentration at which bacterial growth resumed after 4 h (P. aeruginosa PAO1 [10]): 128 μg/mL and 135.5 μM; ATP release (membrane disruption) (S. aureus ATCC 25923 [11]): noticeably less active than the positive control squalamine; ATP release (membrane disruption) (MRSA): noticeably less active than the positive control squalamine; Outer membrane disruption (nitrocefin hydrolysis) (P. aeruginosa PAO1 [12]): inactive at all test doses; MIC P. aeruginosa (P. aeruginosa ATCC 27853 [13]): 100 μg/mL and 106 μM; Combined MIC with doxycycline against P. aeruginosa (P. aeruginosa ATCC 27853 [14]): 6.6 µM; Fold enhancement with doxycycline against P. aeruginosa (P. aeruginosa ATCC 27853 [14]): 18 fold
